Experimental data reported in patent US20120128580A1, “PRESELECTION OF SUBJECTS FOR THERAPEUTIC TREATMENT WITH ELESCLOMOL BASED ON HYPOXIC STATUS” (SYNTA PHARMACEUTICALS CORP., priority 2010, published 2012).

Tests used:
[1] = tested on: non-small cell lung carcinoma (NSCLC); assay: Phase II study, elesclomol with paclitaxel and carboplatin versus paclitaxel and carboplatin alone; format: in vivo, human; settings: previously untreated NSCLC Stage IIIB or IV, i.v. every three weeks for six cycles
Procedure: For example, a Phase II study was performed to test elesclomol in combination with paclitaxel and carboplatin, as compared to paclitaxel and carboplatin alone, in 86 subjects with previously untreated non-small cell lung carcinoma (NSCLC) and non-resectable, locally advanced, or metastatic disease (Stage IIIB or IV) were randomized 1:1 into treatment groups for treatment with carboplatnin plus elesclomol (CP+E) or carboplatnin alone (CP). Subjects were dosed intravenously with 200 mg/m^2 of paclitaxel and AUC=6 of carboplatnin either with or without 266 mg/m^2 of elesclomol every three weeks for six cycles, likely resulting in complete clearance of elesclomol between doses.

[2] = tested on: cancer; assay: Treatment outcomes by level of hypoxia in historical samples; format: in vivo, human
Procedure: An analysis using samples collected from subjects during treatment is performed to determine the efficacy of elesclomol for the treatment of cancer based on the level of hypoxia of the tumor based on markers assessed prior to and/or during the treatment of the subjects. […] The samples are analyzed for the level of hypoxia based on the amount or activity of a marker present. […] Various portions of the tumor tissue can also be analyzed when sufficient material is available, e.g., adjacent to the necrotic core, in the center of the tumor, adjacent to or including tumor vasculature, adjacent to normal tissue, etc. One or more markers of hypoxia are measured in each of the subjects, e.g., at least one isoform or subunit of lactate dehydrogenase (LDH) or hypoxia inducible factor (HIF); at least one pro-angiogenic form of vascular endothelial growth factor (VEGF), phosphorylated VEGF receptor (pKDR) 1, 2, or 3, neurolipin 1 (NRP-1), pyruvate dehydrokinase (PDH-K), and ornithine decarboxylase (ODC). […]

[3] = tested on: relapsed or refractory acute myeloid leukemia (AML); assay: Trial of elesclomol sodium in relapsed or refractory AML with low LDH; format: in vivo, human; settings: baseline serum LDH ≤0.8 ULN, elesclomol sodium once-weekly, starting dose 200 mg/m^2
Procedure: Subjects are identified as having one of relapsed or refractory acute myeloid leukemia (AML). A subject is selected as being candidate for treatment with elesclomol based on appropriate inclusion or exclusion criteria. Routine assessments are made prior to treatment to characterize the disease state of the subject including, but not limited to, imaging studies, hematological studies, and physical examination. Additionally, coded serum sample from the subject is tested to determine the LDH level.
This trial is expected to be sufficiently powered with the enrollment of 36 patients with relapsed or refractory AML and total baseline serum LDH level less-than or equal to 0.8 upper limit of normal (ULN). Patients are treated with elesclomol sodium on a once-weekly schedule at a starting dose of 200 mg/m^2, with dose escalation planned based on safety and tolerability. The primary endpoints are to characterize the safety and tolerability of elesclomol sodium and to determine the pharmacokinetics of elesclomol and its metabolites in this patient population. Secondary endpoints include assessing the activity of elesclomol as a monotherapy in the treatment of AML.

[4] = Half-life of elesclomol in humans; format: in vivo; settings: administered alone or with other chemotherapeutic agents
From the text: Elesclomol has been tested or has been approved for testing in clinical trials for treatment of metastatic melanoma, prostate cancer, solid tumors, recurrent or persistent ovarian epithelial cancer, fallopian tube cancer, and primary peritoneal cancer. The half-life of elesclomol in humans has been determined to be about an hour when administered alone or with other chemotherapeutic agents (e.g., with paxitaxel or carboplatinin).

Structure (SMILES): CN(NC(=O)CC(=O)NN(C)C(=S)c1ccccc1)C(=S)c1ccccc1 [Elesclomol, N-malonyl-bis(N′-methyl-N′-thiobenzoylhydrazide)]
- Median Progression Free Survival ([1]; High LDH): 2.8 months
- Median Progression Free Survival ([1]; Low LDH): 4.6 months
- response of subjects with a low level of hypoxia compared to a high level of hypoxia [2]: better response
- response of subjects with low levels of hypoxia versus historical control populations [3]: respond better
- half-life [4]: about an hour
